# Measurements: article PMC4501006, “Preliminary Characterization and In Vivo Studies of Structurally Identical ^18F- and ^125I-Labeled Benzyloxybenzenes for PET/SPECT Imaging of β-Amyloid Plaques” (Scientific Reports, 2015)
# Test: In vivo metabolism (biostability), HPLC analysis of organ samples
# Conditions: ICR mice, i.v.
# Method: All four radioactive ligands degraded to two corresponding polar radioactive products with shorter retention times. […] The good in vivo biostability of these compounds enhances their potential for SPECT mapping of the brain. […] In the plasma, all four ligands were rapidly converted to polar metabolites, leaving only approximately 10% of the parent tracers at 60 min. […] In contrast, the breakdown of [^125I]7a and [^125I]12a was so rapid that almost negligible amounts of parent tracers remained at 30 min (8.8% and 6.3%, respectively). The polar and hydrophilic metabolites metabolized by the liver could be absorbed by the intestine and excreted through the urine, in accordance with the biodistribution results. The rapid metabolism in the liver may be another reason for the faster clearance of these compounds from the normal brain. For structurally identical molecules labeled with radioactive isotopes at different positions, the in vivo metabolic pathways were expected to be the same. However, as only radioactive products can be detected with PET/SPECT scanners, different pharmacokinetics of the radioactive components could lead to different imaging results. […] The dual radiolabeled identical benzyloxybenzene derivatives in this study were expected to undergo the same metabolic reactions, generating different radioactive metabolites. Differences in the biochemical characteristics of the radiometabolites including absorption, distribution, metabolism and excretion are responsible for the discrepancy in the pharmacokinetics of the radioactivity.
"Percentage of Parent tracer, Brain (post-injection time 2 min) [%]","Percentage of Parent tracer, Feces (post-injection time 2 min) [%]","Percentage of Parent tracer, Liver (post-injection time 2 min) [%]","Percentage of Parent tracer, Plasma (post-injection time 2 min) [%]","Percentage of Parent tracer, Urine (post-injection time 2 min) [%]","Percentage of Parent tracer, Brain (post-injection time 10 min) [%]","Percentage of Parent tracer, Feces (post-injection time 10 min) [%]","Percentage of Parent tracer, Liver (post-injection time 10 min) [%]","Percentage of Parent tracer, Plasma (post-injection time 10 min) [%]","Percentage of Parent tracer, Urine (post-injection time 10 min) [%]","Percentage of Parent tracer, Brain (post-injection time 30 min) [%]","Percentage of Parent tracer, Feces (post-injection time 30 min) [%]","Percentage of Parent tracer, Liver (post-injection time 30 min) [%]","Percentage of Parent tracer, Plasma (post-injection time 30 min) [%]","Percentage of Parent tracer, Urine (post-injection time 30 min) [%]","Percentage of Parent tracer, Brain (post-injection time 60 min) [%]","Percentage of Parent tracer, Feces (post-injection time 60 min) [%]","Percentage of Parent tracer, Liver (post-injection time 60 min) [%]","Percentage of Parent tracer, Plasma (post-injection time 60 min) [%]","Percentage of Parent tracer, Urine (post-injection time 60 min) [%]",SMILES
87.9,46.7,91.1,73.7,0.0,65.7,20.9,85.3,40.4,0.0,49.2,16.8,82.2,34.1,0.0,29.8,17.4,21.7,13.9,0.0,[18F]CCOc1ccc(COc2ccc(I)cc2)cc1 [[^18F]12a]
95.9,22.9,35.2,85.2,0.0,86.0,58.8,13.5,41.3,2.6,79.4,2.0,8.8,22.1,0.0,72.1,0.0,3.3,12.3,0.0,FCCOc1ccc(OCc2ccc([125I])cc2)cc1 [[^125I]7a]
84.7,53.6,79.5,43.1,0.0,69.8,18.8,62.6,21.6,0.0,68.9,10.5,48.7,21.8,0.0,34.0,7.3,23.4,7.2,0.0,[18F]CCOc1ccc(OCc2ccc(I)cc2)cc1 [[^18F]7a]
